Test results from patent US11530186B2, “Inhibitors for the β-catenin / T-cell factor protein-protein interaction” (H. LEE MOFFITT CANCER CENTER AND RESEARCH INSTITUTE, INC., priority 2018, dated 2022).

Tests used:
β-catenin/Tcf4 = biological target: T1, β-catenin/Tcf4 (Homo sapiens, UniProt P35222); test: FP selectivity assay, β-catenin/Tcf assay; format: binding; conditions: mean ± SD (n = 3)
T1 construct: Wild-type β-catenin (residues 138-781) were cloned into a pET-28b vector; 6×histidine (C); made in house; host or cells: E. coli BL21 DE3
T1 sequence (P35222 138-781): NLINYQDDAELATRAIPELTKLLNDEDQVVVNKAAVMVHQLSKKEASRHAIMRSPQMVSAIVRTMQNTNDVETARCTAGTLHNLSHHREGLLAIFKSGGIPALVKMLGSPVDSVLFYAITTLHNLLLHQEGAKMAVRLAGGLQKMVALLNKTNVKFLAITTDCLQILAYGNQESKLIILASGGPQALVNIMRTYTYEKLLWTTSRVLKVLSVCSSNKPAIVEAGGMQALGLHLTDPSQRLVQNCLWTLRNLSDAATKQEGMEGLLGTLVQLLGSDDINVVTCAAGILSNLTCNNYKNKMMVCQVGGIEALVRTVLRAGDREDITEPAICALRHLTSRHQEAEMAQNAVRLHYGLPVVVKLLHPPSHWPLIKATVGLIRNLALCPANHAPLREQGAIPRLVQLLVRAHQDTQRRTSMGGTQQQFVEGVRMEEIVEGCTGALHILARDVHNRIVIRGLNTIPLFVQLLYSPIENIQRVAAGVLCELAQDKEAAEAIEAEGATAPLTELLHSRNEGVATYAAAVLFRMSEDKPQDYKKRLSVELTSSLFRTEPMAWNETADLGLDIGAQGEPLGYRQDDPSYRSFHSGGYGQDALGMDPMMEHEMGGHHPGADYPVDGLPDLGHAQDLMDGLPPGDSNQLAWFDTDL
Experimental: FP Selectivity Assays. Experiments were performed in 96-well Microfluor 2 black plates on a Synergy 2 plate reader (Biotek). The polarization was measured at room temperature with an excitation wavelength at 485 nm and an emission wavelength at 535 nm. The FP experiments were performed in an assay buffer of 25 mM Hepes (pH 7.4), 100 mM NaCl, 0.01% Triton X-100, and 100 μg/ml γ-globulin. The final reaction volume was set to 100 μL. For the β-catenin/Tcf assay, 10 nM human β-catenin (residues 138-781) was incubated with 2.5 nM C-terminally fluorescein-labeled human Tcf4 (residues 7-51) for 30 min at 4° C., and then different concentrations of the compound in assay buffer were added. […] The negative control refers to 5 nM E-cadherin fluorescence tracer and 150 nM β-catenin in assay buffer with no inhibitor presenting. The positive control refers to 5 nM E-cadherin fluorescence tracer in assay buffer. […] The negative control refers to 5 nM APC-R3 fluorescence tracer and 2,000 nM β-catenin in assay buffer without the tested compound. The positive control refers to 5 nM APC-R3 fluorescence tracer in assay buffer. Each assay plate was covered black and gently mixed on an orbital shaker at 4° C. for 2.5 h to reach equilibrium before the polarization values were read. […] The IC50 values were determined by GraphPad Prism 5.0. […] The results were expressed as mean±standard deviation. […]

β-catenin/APC-R3 = biological target: T2, β-catenin/APC-R3 (Homo sapiens, UniProt P35222); test: FP selectivity assay, β-catenin/APC-R3 assay; format: binding
T2 construct: 2000 nM human β-catenin (residues 138-781); 6×histidine (C); made in house; host or cells: E. coli BL21 DE3
T2 sequence (P35222 138-781): T1 sequence (P35222 138-781)
Experimental: FP Selectivity Assays. Experiments were performed in 96-well Microfluor 2 black plates on a Synergy 2 plate reader (Biotek). The polarization was measured at room temperature with an excitation wavelength at 485 nm and an emission wavelength at 535 nm. The FP experiments were performed in an assay buffer of 25 mM Hepes (pH 7.4), 100 mM NaCl, 0.01% Triton X-100, and 100 μg/ml γ-globulin. The final reaction volume was set to 100 μL. For the β-catenin/Tcf assay, 10 nM human β-catenin (residues 138-781) was incubated with 2.5 nM C-terminally fluorescein-labeled human Tcf4 (residues 7-51) for 30 min at 4° C., and then different concentrations of the compound in assay buffer were added. […] For the β-catenin/cadherin assay, 150 nM human β-catenin (residues 138-781) was incubated with 5 nM C-terminally fluorescent-labeled human E-cadherin (residues 819-873) in assay buffer for 30 min at 4° C. The negative control refers to 5 nM E-cadherin fluorescence tracer and 150 nM β-catenin in assay buffer with no inhibitor presenting. The positive control refers to 5 nM E-cadherin fluorescence tracer in assay buffer. […] The negative control refers to 5 nM APC-R3 fluorescence tracer and 2,000 nM β-catenin in assay buffer without the tested compound. The positive control refers to 5 nM APC-R3 fluorescence tracer in assay buffer. Each assay plate was covered black and gently mixed on an orbital shaker at 4° C. for 2.5 h to reach equilibrium before the polarization values were read. […] The IC50 values were determined by GraphPad Prism 5.0. […] The results were expressed as mean±standard deviation. The Tcf/cahderin selectivity ratio was calculated on the basis of the respective Ki value of the β-catenin/E-cadherin interaction over that of the β-catenin/Tcf4 interaction. The Tcf/APC selectivity ratio was calculated on the basis of the respective Ki value of the β-catenin/APC-R3 interaction over that of the β-catenin/Tcf4 interaction. […]

Ki (β-catenin/Tcf4): 0.93 ± 0.51 µM | Ki (β-catenin/APC-R3; FP selectivity assay, mean ± SD (n = 3)): 74 ± 11 µM | selectivity for β-catenin/Tcf over β-catenin/APC PPI (β-catenin/APC-R3; FP selectivity assays): 80 fold | Selectivity Tcf/APC (β-catenin/APC-R3; ratio of Ki β-catenin/APC-R3 over Ki β-catenin/Tcf4): 80
SMILES: O=C(O)c1ccc2c(c1)c(CCc1ccc(Cl)cc1)c(CCc1nc3ccccc3s1)n2CCc1nn[nH]n1 [Compound 27, 1-(2-(2H-tetrazol-5-yl)ethyl)-2-(2-(benzo[d]thiazol-2-yl)ethyl)-3-(4-chlorophenethyl)-1H-indole-5-carboxylic acid]
